These are literature values, as cited in US9561187B1, “Sustained release metoprolol formulations” (CMAX Technologies, Inc., priority 2014, dated 2017).

The conditions of data set [1]: immediate-release tartrate vs extended-release succinate.

Molecules are shown by their SMILES. Structures can show the parent of a compound that is named as a salt. Where two headings read alike, the source gives them in different places.

For `COCCc1ccc(OCC(O)CNC(C)C)cc1` (racemic) [Metoprolol tartrate, (±)-1-(Isopropylamino)-3-[p-(2-methoxyethyl)phenoxy]-2-propanol L-(+)-tartrate (2:1) salt], the “More bioavailable than metoprolol succinate (more drug is absorbed)” value in data set [1] is listed as “at least 30%”. The Solubility entry reads like this: (in acetone) “slightly soluble”; (in ether) “insoluble”; (in methylene chloride, in chloroform, and in alcohol) “freely soluble”; (in water) “very soluble”.

As for `COCCc1ccc(OCC(O)CNC(C)C)cc1` (racemic) [Metoprolol succinate, (±)1(isopropylamino)-3-[p-(2-methoxyethyl)phenoxy]-2-propanol succinate (2:1) (salt)], the Solubility entry (in dichloromethane and 2-propanol) is recorded as “slightly soluble”; the Solubility result (in ethanol) is “sparingly soluble”; the Solubility result (in ethyl-acetate, acetone, diethylether and heptane) was “practically insoluble”; the Solubility entry (in methanol) is recorded as “soluble”; the Solubility result (in water) is recorded as “freely soluble”.
